Experiments:
STAT6 = biological target: T1, STAT6 (Homo sapiens, UniProt P42226); assay: STAT6 Reporter Luciferase Assay (IL-13 stimulated HaCaT keratinocyte NanoLuc reporter cells); format: cell-based; settings: STAT6 NanoLuc luciferase reporter, IL-13 stimulated HaCaT keratinocyte cells; read-out: Reporter EC50
T1 construct: stably transfected HaCaT keratinocyte cell line, which expresses NanoLuc luciferase reporter gene under the transcriptional control of the STAT6 responsive promoter; endogenous in cells; host or cells: HaCaT keratinocyte reporter cell line (stably transfected with a NanoLuc reporter)
T1 sequence (P42226 1-847): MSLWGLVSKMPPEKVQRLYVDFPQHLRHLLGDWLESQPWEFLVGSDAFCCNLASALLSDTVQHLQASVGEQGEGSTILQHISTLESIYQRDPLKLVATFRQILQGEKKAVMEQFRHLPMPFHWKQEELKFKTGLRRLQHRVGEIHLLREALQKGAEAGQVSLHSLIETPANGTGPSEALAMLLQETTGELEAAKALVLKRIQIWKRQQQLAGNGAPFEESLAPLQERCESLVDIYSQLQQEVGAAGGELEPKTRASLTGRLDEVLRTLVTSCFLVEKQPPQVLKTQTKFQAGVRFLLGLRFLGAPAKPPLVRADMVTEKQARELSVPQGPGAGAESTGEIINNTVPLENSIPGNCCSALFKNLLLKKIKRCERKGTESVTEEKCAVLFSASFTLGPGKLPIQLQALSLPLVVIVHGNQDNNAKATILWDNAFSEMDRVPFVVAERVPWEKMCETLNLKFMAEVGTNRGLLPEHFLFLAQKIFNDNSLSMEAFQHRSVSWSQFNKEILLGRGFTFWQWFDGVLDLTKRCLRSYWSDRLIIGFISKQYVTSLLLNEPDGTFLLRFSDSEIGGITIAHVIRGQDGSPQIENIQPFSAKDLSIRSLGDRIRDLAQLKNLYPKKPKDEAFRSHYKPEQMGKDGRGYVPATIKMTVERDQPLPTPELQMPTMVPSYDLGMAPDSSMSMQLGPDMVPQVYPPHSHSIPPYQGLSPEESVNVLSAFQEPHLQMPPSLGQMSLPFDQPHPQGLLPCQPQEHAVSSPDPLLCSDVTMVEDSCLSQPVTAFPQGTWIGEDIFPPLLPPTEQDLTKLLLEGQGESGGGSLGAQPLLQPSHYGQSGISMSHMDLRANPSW
Summary of the method: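 Compounds were tested as 11-point, 4-fold series in duplicate, applied for 2 h at 37 °C in low-serum (2% FBS) DMEM. The cells were a stable HaCaT line with NanoLuc under a STAT6-responsive IL-13Ra2 promoter. After 4 h with 0.12 nM IL-13, Nano-Glo luminescence was measured.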

[1] = tested on: CCL17 secretion in peripheral human whole blood; assay: Human Whole Blood (HWB) CCL17 TR-FRET Assay (IL-13 stimulated CCL17 secretion); format: cell-based; settings: inhibition of CCL17 secretion in human whole blood, 10 ng/mL IL13, 48 hours
Summary of the method: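 Heparinized peripheral human whole blood was preincubated with compound (11-point, 3-fold series, duplicate) for 2 h at 37 °C, then stimulated with IL-13 at 10 ng/mL final for 48 h at 37 °C. Secreted CCL17 in the serum was quantified by TR-FRET sandwich immunoassay (665/615 nm ratio, 16 h RT); IC50 derived.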

| Structure (SMILES) | EC50 (STAT6) [nM] | IC50 ([1]; Homo sapiens, 48 h) [nM] | IC50 [1] [nM] |
| --- | --- | --- | --- |
| CN(C)C(=O)Nc1ccc(CNC(=O)c2nn(C34CC(C3)C4)c3c2CN(c2ccc(C(=O)N(C)C)cn2)CC3)cc1 [Example 104, 1-(bicyclo[1.1.1]pentan-1-yl)-5-(5-(dimethylcarbamoyl)pyridin-2-yl)-N-(4-(3,3-dimethylureido)benzyl)-4,5,6,7-tetrahydro-1H-pyrazolo[4,3-c]pyridine-3-carboxamide] | 7 | 107 | – |
| CN(C)C(=O)Nc1ccc(CNC(=O)c2nn(C)c3c2CN(c2ccc(C(=O)N(C)C)cn2)CC3(C)C)cc1 [Example 105, 5-(5-(dimethylcarbamoyl)pyridin-2-yl)-N-(4-(3,3-dimethylureido)benzyl)-1,7,7-trimethyl-4,5,6,7-tetrahydro-1H-pyrazolo[4,3-c]pyridine-3-carboxamide] | 3 | 21 | – |
| CN(C)C(=O)Nc1ccc(CNC(=O)c2nn(C)c3c2CN(c2ccc(C(=O)N(C)C)cn2)CC32CC2)cc1 [Example 106, 5′-(5-(dimethylcarbamoyl)pyridin-2-yl)-N-(4-(3,3-dimethylureido)benzyl)-1′-methyl-1′,4′,5′,6′-tetrahydrospiro[cyclopropane-1,7′-pyrazolo[4,3-c]pyridine]-3′-carboxamide] | 8 | 49 | – |
| CC(C)n1nc(C(=O)NCc2ccc(NC(=O)N(C)C)cc2)c2c1C[C@@H](C)N(c1ccc(C(=O)N(C)C)cn1)C2 [Example 114, (R)-5-(5-(dimethylcarbamoyl)pyridin-2-yl)-N-(4-(3,3-dimethylureido)benzyl)-1-isopropyl-6-methyl-4,5,6,7-tetrahydro-1H-pyrazolo[4,3-c]pyridine-3-carboxamide] | 20 | 211 | – |
| C[C@H]1CN(c2ncc(C(=O)N(C)C)cn2)Cc2c(C(=O)NCc3ccc(NC(=O)N(C)C)cc3)nn(CC3CC3)c21 [Example 120, (S)-1-(cyclopropylmethyl)-5-(5-(dimethylcarbamoyl)pyrimidin-2-yl)-N-(4-(3,3-dimethylureido)benzyl)-7-methyl-4,5,6,7-tetrahydro-1H-pyrazolo[4,3-c]pyridine-3-carboxamide] | 1 | 4 | – |
| CCn1nc(C(=O)NCc2ccc(NC(=O)N(C)C)cc2)c2c1[C@@H](C)CN(c1ncc(C(=O)N(C)C)cn1)C2 [Example 125, (S)-5-(5-(Dimethylcarbamoyl)pyrimidin-2-yl)-N-(4-(3,3-dimethylureido)benzyl)-1-ethyl-7-methyl-4,5,6,7-tetrahydro-1H-pyrazolo[4,3-c]pyridine-3-carboxamide] | 1 | 4 | – |
| CCn1nc(C(=O)NCc2ccc(NC(=O)N(C)C)cc2)c2c1[C@@H](C)CN(c1ccc(C(=O)N(C)C)cn1)C2 [Example 126, (S)-5-(5-(Dimethylcarbamoyl)pyridin-2-yl)-N-(4-(3,3-dimethylureido)benzyl)-1-ethyl-7-methyl-4,5,6,7-tetrahydro-1H-pyrazolo[4,3-c]pyridine-3-carboxamide] | 1 | 5 | – |
| CC(C)n1nc(C(=O)NCc2ccc(NC(=O)N(C)C)cc2)c2c1[C@@H](C)CN(c1ncc(C(=O)N(C)C)cn1)C2 [Example 127] | 1 | 4 | – |
| CCn1nc(C(=O)NCc2ccc(NC(=O)N(C)C)cc2)c2c1[C@@H](C)CN(c1ccc(N3CCCC3=O)cn1)C2 [Example 129, (S)-N-(4-(3,3-dimethylureido)benzyl)-1-ethyl-7-methyl-5-(5-(2-oxopyrrolidin-1-yl)pyridin-2-yl)-4,5,6,7-tetrahydro-1H-pyrazolo[4,3-c]pyridine-3-carboxamide] | 1 | 9 | – |
| CC(C)n1nc(C(=O)NCc2ccc(NC(=O)N3CCN(C)CC3)cc2)c2c1[C@@H](C)CN(c1ccc(C(=O)N(C)C)cc1)C2 [Example 132, (S)-5-(4-(Dimethylcarbamoyl)phenyl)-1-isopropyl-7-methyl-N-(4-(4-methylpiperazine-1-carboxamido)benzyl)-4,5,6,7-tetrahydro-1H-pyrazolo[4,3-c]pyridine-3-carboxamide] | 0.2 | 3.6 | – |
| CC(C)n1nc(C(=O)NCc2ccc(NC(=O)N3CCCC3)cc2)c2c1CCN(c1ccc(C(=O)N(C)C)cn1)C2 [Example 136, 5-(5-(Dimethylcarbamoyl)pyridin-2-yl)-1-isopropyl-N-(4-(pyrrolidine-1-carboxamido)benzyl)-4,5,6,7-tetrahydro-1H-pyrazolo[4,3-c]pyridine-3-carboxamide] | 12 | – | 196 |

Continued, in another order:

| EC50 (STAT6) [nM] | IC50 ([1]; Homo sapiens, 48 h) [nM] | Structure (SMILES) | IC50 [1] [nM] |
| --- | --- | --- | --- |
| 13 | 219 | CC(C)n1nc(C(=O)NCc2ccc(NC(=O)N(C)C)cc2)c2c1CCN(c1ccc(N3CCOC3=O)cn1)C2 [Example 107, N-(4-(3,3-dimethylureido)benzyl)-1-isopropyl-5-(5-(2-oxooxazolidin-3-yl)pyridin-2-yl)-4,5,6,7-tetrahydro-1H-pyrazolo[4,3-c]pyridine-3-carboxamide] | – |
| 30 | 536 | CC(C)n1nc(C(=O)NCc2ccc(NC(=O)N(C)C)cc2)c2c1CCN(c1ccc(-n3ccccc3=O)cn1)C2 [Example 108, N-(4-(3,3-dimethylureido)benzyl)-1-isopropyl-5-(2-oxo-2H-[1,3′-bipyridin]-6′-yl)-4,5,6,7-tetrahydro-1H-pyrazolo[4,3-c]pyridine-3-carboxamide] | – |
| 117 | > 30000 | CC(C)n1nc(C(=O)NCc2ccc(NC(=O)N(C)C)cc2)c2c1CCN(c1ccc(N3C(=O)C4CCC3C4)cn1)C2 (stereo not shown) [Example 109, N-(4-(3,3-dimethylureido)benzyl)-1-isopropyl-5-(5-(3-oxo-2-azabicyclo[2.2.1]heptan-2-yl)pyridin-2-yl)-4,5,6,7-tetrahydro-1H-pyrazolo[4,3-c]pyridine-3-carboxamide] | – |
| 523 | 2090 | CC(C)n1nc(C(=O)NCc2ccc(NC(=O)N(C)C)cc2)c2c1CCN(c1ccc(N3C(=O)OCC3CO)cn1)C2 (stereo not shown) [Example 110, N-(4-(3,3-dimethylureido)benzyl)-5-(5-(4-(hydroxymethyl)-2-oxooxazolidin-3-yl)pyridin-2-yl)-1-isopropyl-4,5,6,7-tetrahydro-1H-pyrazolo[4,3-c]pyridine-3-carboxamide] | – |
| 28 | 48 | CC(C)n1nc(C(=O)NCc2ccc(NC(N)=O)cc2)c2c1CCN(c1ccc(C(=O)N(C)C)cn1)C2 [Example 133, 5-(5-(dimethylcarbamoyl)pyridin-2-yl)-1-isopropyl-N-(4-ureidobenzyl)-4,5,6,7-tetrahydro-1H-pyrazolo[4,3-c]pyridine-3-carboxamide] | – |
| 7 | 46 | CNC(=O)Nc1ccc(CNC(=O)c2nn(C(C)C)c3c2CN(c2ccc(C(=O)N(C)C)cn2)CC3)cc1 [Example 134, 5-(5-(dimethylcarbamoyl)pyridin-2-yl)-1-isopropyl-N-(4-(3-methylureido)benzyl)-4,5,6,7-tetrahydro-1H-pyrazolo[4,3-c]pyridine-3-carboxamide] | – |
| 136 | 1270 | CNC(=O)c1ccc(N2CCc3c(c(C(=O)NCc4ccc(NC(=O)N(C)C)cc4)nn3C(C)C)C2)nc1 [Example 135, N-(4-(3,3-dimethylureido)benzyl)-1-isopropyl-5-(5-(methylcarbamoyl)pyridin-2-yl)-4,5,6,7-tetrahydro-1H-pyrazolo[4,3-c]pyridine-3-carboxamide] | – |
| 1860 | 9690 | CC(C)n1nc(C(=O)NCc2ccc(NC(=O)N(C)C)cc2)c2c1CCN(c1ccc(C(N)=O)cn1)C2 [Example 137, 5-(5-carbamoylpyridin-2-yl)-N-(4-(3,3-dimethylureido)benzyl)-1-isopropyl-4,5,6,7-tetrahydro-1H-pyrazolo[4,3-c]pyridine-3-carboxamide] | – |
| 248 | 1140 | CC(C)n1nc(C(=O)NCc2ccc(NC(=O)N(C)C)cc2)c2c1CCN(c1ccc(NS(C)(=O)=O)cn1)C2 [Example 138, N-(4-(3,3-dimethylureido)benzyl)-1-isopropyl-5-(5-(methylsulfonamido)pyridin-2-yl)-4,5,6,7-tetrahydro-1H-pyrazolo[4,3-c]pyridine-3-carboxamide] | – |

Source: US20250320213A1, “Nitrogen-Containing Heterocyclic Compounds” (Pfizer Inc., priority 2024, published 2025)
